US11053204B2, “Pyrimidinyloxy benzene derivatives as herbicides” (FMC Corporation, priority 2015, dated 2021)

Experiments:
Assay in all cases: Test C preemergence, plant response rating
Assay type in all cases: in vivo
[1] = system: pigweed (Amaranthus retroflexus); settings: for Plant response rating, Pigweed: Preemergence; for Pigweed plant response rating: preemergence
[2] = system: barnyardgrass (Echinochloa crus-galli); settings: for pest or weed control at 16 g/ha / pest or weed control at 31 g/ha / pest or weed control at 62 g/ha / pest or weed control at 125 g/ha: Echinochloa crus-galli, pre-emergence; for pest or weed control at 16 g/ha / pest or weed control at 31 g/ha / pest or weed control at 62 g/ha / pest or weed control at 125 g/ha / Plant response rating, Barnyardgrass: Preemergence; for Barnyardgrass plant response rating: preemergence
[3] = system: galium (catchweed bedstraw, Galium aparine)
[4] = system: johnsongrass (Sorghum halepense)

SMILES | Plant response rating, Pigweed ([1]; 16 g ai/ha, scale 0 to 100) | Plant response rating, Pigweed ([1]; 31 g ai/ha, scale 0 to 100) | pest or weed control at 16 g/ha ([2]; 16 g ai/ha, scale 0 to 100) [%] | pest or weed control at 31 g/ha ([2]; 31 g ai/ha, scale 0 to 100) [%] | Plant response rating, Pigweed ([1]; 125 g ai/ha, scale of 0 to 100) | Plant response rating, Pigweed ([1]; 62 g ai/ha, scale 0 to 100) | pest or weed control at 62 g/ha ([2]; 62 g ai/ha, scale of 0 to 100) [%] | pest or weed control at 125 g/ha ([2]; 125 g ai/ha, scale of 0 to 100) [%] | Plant response rating, Galium ([3]; 16 g ai/ha, scale 0 to 100) | Plant response rating, Galium ([3]; 31 g ai/ha, scale 0 to 100) | Plant response rating, Galium ([3]; 62 g ai/ha, scale of 0 to 100) | Plant response rating, Galium ([3]; 125 g ai/ha, scale of 0 to 100) | Plant response rating, Johnsongrass ([4]; 16 g ai/ha, scale 0 to 100) | Plant response rating, Johnsongrass ([4]; 31 g ai/ha, scale 0 to 100) | Plant response rating, Johnsongrass ([4]; 62 g ai/ha, scale 0 to 100) | Plant response rating, Johnsongrass ([4]; 125 g ai/ha, scale of 0 to 100) | Plant response rating, Barnyardgrass ([2]; 62 g ai/ha, scale of 0 to 100) | Plant response rating, Barnyardgrass ([2]; 125 g ai/ha, scale of 0 to 100) | Plant response rating, Barnyardgrass ([2]; 16 g ai/ha, scale 0 to 100) | Plant response rating, Barnyardgrass ([2]; 31 g ai/ha, scale 0 to 100) | also measured
CCCOC(=O)c1c(Br)cccc1Oc1ncc(Cl)cn1 [Compound 13, propyl 2-bromo-6-[(5-chloro-2-pyrimidinyl)oxy]benzoate] | 5 | 60 | 10 | 40 |  |  |  |  |  |  |  |  |  |  |  |  |  |  |  |  | Pigweed plant response rating ([1]; 4 g ai/ha, scale 0 to 100): 5; Pigweed plant response rating ([1]; 8 g ai/ha, scale 0 to 100): 10; Barnyardgrass plant response rating ([2]; 4 g ai/ha, scale 0 to 100): 0; Barnyardgrass plant response rating ([2]; 8 g ai/ha, scale 0 to 100): 0
O=C(OCCC(F)(F)F)c1c(Cl)cccc1Oc1ncc(Cl)cn1 [Compound 15, 3,3,3-trifluoropropyl 2-chloro-6-[(5-chloro-2-pyrimidinyl)oxy]benzoate] | 98 | 100 | 10 | 85 | 100 | 100 | 100 | 100 |  |  |  |  |  |  |  |  |  |  |  |  | 
CC(CC(F)(F)F)OC(=O)c1c(Br)cccc1Oc1ncc(Cl)cn1 (centres unmarked) [Compound 16, 3,3,3-trifluoro-1-methylpropyl 2-bromo-6-[(5-chloro-2-pyrimidinyl)oxy]benzoate] | 0 | 0 | 0 | 15 | 95 | 50 | 30 | 75 |  |  |  |  |  |  |  |  |  |  |  |  | 
O=C(OCCCC(F)(F)F)c1c(Br)cccc1Oc1ncc(Cl)cn1 [Compound 20, 4,4,4-trifluorobutyl 2-bromo-6-[(5-chloro-2-pyrimidinyl)oxy]benzoate] | 55 | 55 | 0 | 5 | 100 | 100 | 30 | 85 | 10 | 0 | 80 | 95 |  |  |  |  |  |  |  |  | 
C=CCCOC(=O)c1c(Br)cccc1Oc1ncc(Cl)cn1 [Compound 21, 3-buten-1-yl 2-bromo-6-[(5-chloro-2-pyrimidinyl)oxy]benzoate] | 5 | 55 | 10 | 55 | 100 | 98 | 90 | 98 |  | 0 | 5 | 100 |  |  |  |  |  |  |  |  | 
O=C(OCCC(F)(F)F)c1c(Br)cccc1Oc1ncc(Cl)cn1 [Compound 26, 3,3,3-trifluoropropyl 2-bromo-6-[(5-chloro-2-pyrimidinyl)oxy]benzoate] | 100 | 100 | 40 | 75 | 100 | 100 | 100 | 100 | 5 | 90 | 95 | 100 | 55 | 50 | 80 | 98 |  |  |  |  | 
N#Cc1cccc(Oc2ncc(Cl)cn2)c1C(=O)OCCC(F)(F)F [Compound 30] | 90 | 95 |  |  | 100 | 100 |  |  | 80 | 10 | 60 | 85 | 0 | 0 | 0 | 15 | 10 | 25 | 10 | 15 | 
O=C(OCCC(F)(F)F)c1c(Br)cccc1Oc1ncc(Br)cn1 [Compound 33] | 80 | 100 |  |  | 100 | 100 |  |  | 0 | 60 | 60 | 95 | 0 | 5 | 25 | 35 | 95 | 100 | 20 | 40 | 
N#Cc1cccc(Oc2ncc(Cl)cn2)c1CCCC(F)(F)F [Compound 72] | 100 | 100 |  |  | 100 | 100 |  |  | 5 | 75 | 90 | 100 | 5 | 65 | 70 | 100 | 80 | 100 | 25 | 90 | 
N#Cc1cccc(Oc2ncc(Cl)cn2)c1CCCCC(F)(F)F [Compound 73, 3-[(5-chloro-2-pyrimidinyl)oxy]-2-(5,5,5-trifluoropentyl)benzonitrile] | 90 | 95 | 15 | 80 | 100 | 100 | 100 | 100 | 5 | 10 | 100 | 100 | 0 | 40 | 80 | 95 |  |  |  |  | 
O=C(CCCC(F)(F)F)c1c(Br)cccc1Oc1ncc(Cl)cn1 [Compound 77] | 85 | 100 |  |  | 100 | 100 |  |  | 0 | 0 | 98 | 98 |  |  |  |  | 98 | 100 | 20 | 60 | 
O=C(CCC(F)(F)F)c1c(Br)cccc1Oc1ncc(Cl)cn1 [Compound 92] |  | 100 |  |  | 100 | 100 |  |  |  |  |  |  |  |  |  |  |  | 100 | 35 | 85 | Plant response rating, Barnyardgrass ([2]; 62 g ai/ha, scale 0 to 100): 98
